Patent publication US20230303553A1, “CDK6/DYRK2 DUAL-TARGET INHIBITOR, AND PREPARATION METHOD THEREFOR AND USE THEREOF” (JIANGSU TASLY DIYI PHARMACEUTICAL CO., LTD., priority 2021, published 2023)
Read-outs that look alike come from different tables or passages of the source.

Columns and labels:
[1] = test system: xenografts of human lung cancer A549; test: Human lung cancer A549 xenografts in nude mice; assay type: in vivo, BALB/c nude mice; details: for relative tumor proliferation rate T/C(%) / tumor growth inhibition rate: A549 xenograft, 21 days
[2] = test system: prostate cancer (Du-145) cell line; test: MTT cancer cell proliferation, Du-145; assay type: cell-based; details: Homo sapiens, read-out: IC50 proliferation Du-145
[3] = test system: xenografts of human prostate cancer Du-145; test: Human prostate cancer Du-145 xenografts in nude mice; assay type: in vivo, BALB/c nude mice; details: for inhibition on tumor growth, in words: FIG. 3
[4] = test system: leukemia (K562) cell line; test: MTT cancer cell proliferation, K562; assay type: cell-based; details: Homo sapiens, read-out: IC50 proliferation K-562
[5] = test system: colon cancer (HT-29) cell line; test: MTT cancer cell proliferation, HT-29; assay type: cell-based; details: Homo sapiens, read-out: IC50 proliferation HT-29
[6] = test system: xenografts of human prostate cancer PC3; test: Human prostate cancer PC-3 xenografts in nude mice; assay type: in vivo, BALB/c nude mice; details: for relative tumor proliferation rate T/C(%) / tumor growth inhibition rate: PC-3 xenograft, 28 days
[7] = test system: non-small cell lung cancer (NCI-H1299) cell line; test: MTT cancer cell proliferation, NCI-H1299; assay type: cell-based; details: Homo sapiens, read-out: IC50 proliferation NCI-H1299
ICR mice = test: Acute toxicity in mice, single gavage; assay type: in vivo
[8] = test system: multiple myeloma (RPMI8226) cell line; test: MTT cancer cell proliferation, RPMI8226; assay type: cell-based; details: Homo sapiens, read-out: IC50 proliferation RPMI8226
DYRK2 kinase = DYRK2 kinase (Homo sapiens (Human), UniProt Q92630); test: DYRK2 kinase activity, 33P-ATP / Woodtide substrate; assay type: biochemical
[9] = test system: human breast cancer (MCF-7); test: MTT cancer cell proliferation, MCF-7; assay type: cell-based; details: read-out: IC50 proliferation MCF-7
[10] = test system: human glioma (U251) cell line; test: MTT cancer cell proliferation, U251; assay type: cell-based; details: read-out: IC50 proliferation U251
[11] = test system: gastric cancer (MGC-803) cell line; test: MTT cancer cell proliferation, MGC-803; assay type: cell-based; details: Homo sapiens, read-out: IC50 proliferation MGC-803
[12] = test system: triple negative breast cancer (MDA-MB-231) cell line; test: MTT cancer cell proliferation, MDA-MB-231; assay type: cell-based; details: Homo sapiens
[13] = Pharmacokinetics in SD rats; assay type: in vivo; details: for half-life: read-out: t ½ (converted)
[14] = test system: pancreatic cancer (Panc-1) cell line; test: MTT cancer cell proliferation, Panc-1; assay type: cell-based; details: Homo sapiens, read-out: IC50 proliferation Panc-1
[15] = test system: ovarian cancer (SK-OV-3) cell line; test: MTT cancer cell proliferation, SK-OV-3; assay type: cell-based; details: Homo sapiens, read-out: IC50 proliferation SK-OV-3
[16] = test system: liver cancer (HepG2) cell line; test: MTT cancer cell proliferation, HepG2; assay type: cell-based; details: Homo sapiens, read-out: IC50 proliferation HepG2
CDK6 kinase = CDK6 kinase (Homo sapiens (Human), UniProt Q00534); test: CDK6 kinase activity, Lance Ultra TR-FRET; assay type: biochemical
lung cancer (A-549) = test: MTT cancer cell proliferation, A-549; assay type: cell-based; details: Homo sapiens, read-out: IC50 proliferation A-549
[17] = test system: prostate cancer (PC-3) cell line; test: MTT cancer cell proliferation, PC-3; assay type: cell-based; details: Homo sapiens, read-out: IC50 proliferation PC-3
[18] = 150 mg/kg intragastric once every 2 days
[19] = 300 mg/kg intragastric once every 2 days
[20] = Du-145 xenograft, 200 mg/kg intragastric once every day
[21] = 100 mg/kg intragastric once every day
[22] = 200 mg/kg intragastric once every day
[23] = rat, plasma, iv tail vein 1 mg/kg
[24] = rat, plasma, po gavage 10 mg/kg

DYRK2 kinase, sequence (Q92630 whole entry): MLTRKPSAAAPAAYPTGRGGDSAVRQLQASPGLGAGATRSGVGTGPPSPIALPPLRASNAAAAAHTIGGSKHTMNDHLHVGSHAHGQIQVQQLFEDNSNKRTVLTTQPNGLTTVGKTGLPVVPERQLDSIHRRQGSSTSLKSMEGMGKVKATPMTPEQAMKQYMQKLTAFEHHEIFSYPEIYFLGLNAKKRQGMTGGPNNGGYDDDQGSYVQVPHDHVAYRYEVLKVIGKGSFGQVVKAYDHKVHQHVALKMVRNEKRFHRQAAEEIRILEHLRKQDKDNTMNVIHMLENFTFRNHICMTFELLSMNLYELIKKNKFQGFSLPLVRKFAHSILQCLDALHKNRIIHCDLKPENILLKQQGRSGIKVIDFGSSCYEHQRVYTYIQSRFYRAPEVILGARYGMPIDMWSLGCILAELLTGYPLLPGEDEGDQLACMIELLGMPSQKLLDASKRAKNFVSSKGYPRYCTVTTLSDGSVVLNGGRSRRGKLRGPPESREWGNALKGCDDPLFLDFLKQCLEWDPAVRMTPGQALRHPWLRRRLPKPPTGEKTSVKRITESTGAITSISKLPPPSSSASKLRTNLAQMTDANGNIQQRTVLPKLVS
CDK6 kinase, sequence (Q00534 whole entry): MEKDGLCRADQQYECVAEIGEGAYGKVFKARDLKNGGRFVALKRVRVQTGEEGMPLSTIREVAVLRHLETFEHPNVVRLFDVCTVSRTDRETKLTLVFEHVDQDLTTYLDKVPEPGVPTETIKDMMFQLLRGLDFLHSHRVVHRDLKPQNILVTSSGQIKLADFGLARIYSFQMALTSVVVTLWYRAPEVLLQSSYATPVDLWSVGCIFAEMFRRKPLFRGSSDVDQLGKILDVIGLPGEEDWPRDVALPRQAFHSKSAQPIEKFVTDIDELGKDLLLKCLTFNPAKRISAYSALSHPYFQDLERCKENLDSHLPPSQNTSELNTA
CDK6 kinase, sequence (P24385 whole entry partner): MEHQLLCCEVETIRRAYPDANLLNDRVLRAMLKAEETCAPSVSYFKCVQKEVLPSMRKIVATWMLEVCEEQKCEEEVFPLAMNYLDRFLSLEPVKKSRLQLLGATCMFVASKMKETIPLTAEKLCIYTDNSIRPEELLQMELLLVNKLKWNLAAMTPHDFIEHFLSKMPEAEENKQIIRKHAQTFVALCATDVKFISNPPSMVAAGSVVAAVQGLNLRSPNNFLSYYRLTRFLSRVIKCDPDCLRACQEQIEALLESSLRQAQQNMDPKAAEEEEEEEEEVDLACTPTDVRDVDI

For `CCN1CCN(C(=O)c2ccc(Nc3ncc(F)c(-c4ccc5nc(N(C)C)sc5c4)n3)nc2)CC1` [Example 31, (6-((4-(2-(dimethylamino)benzothiazole-6-yl)-5-fluoropyrimidine-2-yl)amino)pyridine-3-yl)(4-ethylpiperazine-1-yl)ketone], the “effect on growth of xenografts, in words” value ([1]; A549 xenograft in nude mice) was “significant inhibitory effect”, the “relative tumor proliferation rate T/C(%)” value [1, 18] was 44.8% and the “tumor growth inhibition rate” value [1, 18] was 55.2%. The “relative tumor proliferation rate T/C(%)” value [1, 19] was 35.9%, the “tumor growth inhibition rate” value [1, 19] was 64.1% and the IC50 ([2]; DU-145, 72 h) was 3.3 µM. The “effect on growth of xenografts, in words” value ([3]; Du-145 xenograft in nude mice) was “significant inhibitory effect”, the “inhibition on tumor growth, in words” value ([3]; Du-145 xenograft, 100 mg/kg intragastric once every day, groups compared) was “better inhibition on tumor growth than the positive drug Palbociclib” and the “day on which tumor volume started to be reduced” value [3, 20] was 31 days. For the same compound, the “inhibition on tumor growth, in words” value [3, 20] was “significantly inhibited tumor growth”, the IC50 ([4]; K562, 72 h) was 0.917 µM and the IC50 ([5]; HT-29, 72 h) was 1.87 µM. For the same compound, the “effect on growth of xenografts, in words” value ([6]; PC-3 xenograft in nude mice) was “significant inhibitory effect”, the “relative tumor proliferation rate T/C(%)” value [6, 21] was 35.7% and the “tumor growth inhibition rate” value [6, 21] was 64.3%. For the same compound, the “relative tumor proliferation rate T/C(%)” value [6, 22] was 23.4%, the “tumor growth inhibition rate” value [6, 22] was 76.6% and the IC50 ([7]; NCI-H1299, 72 h) was 2.13 µM. The “Organ toxicity by HE staining” value (ICR mice; acute toxicity assay, FIG. 2) was “no significant toxicity to heart, liver, spleen, lung, kidney and other major organs”, the “Toxicity symptoms / abnormality” value (ICR mice; single gavage 2500, 5000 or 10000 mg/kg) was “no abnormality was found within 12 h after administration in all groups” and the Death of mice (ICR mice; single gavage 2500, 5000 or 10000 mg/kg, 14 days observation) was “No animals died within 24h of dosing and no animals died after day 14 of dosing”. For the same compound, the IC50 ([8]; RPMI-8226, 72 h) was 1.08 µM, the IC50 (DYRK2 kinase) was 0.009 µM and the IC50 ([9]; MCF7, 72 h) was 1.89 µM. The IC50 ([10]; U-251, 72 h) was 2.15 µM, the IC50 ([11]; MGC-803, 72 h) was 2.02 µM and the IC50 ([12]; MDA-MB-231, 72 h, read-out: IC50 proliferation MDA-MB-231) was 1.75 µM. The “Pharmacokinetic assessment in words” value [13] was “good metabolism in rats, good absorption and exposure and high bioavailability”, the “F (bioavailability)” value ([13]; po 10 mg/kg vs iv 1 mg/kg) was 55.78% and the Cl ([13]; po gavage 10 mg/kg) was 19.97 mL/min/kg. The AUC(0-inf) [13, 23] was 1500 ng·h/mL, the Cmax [13, 23] was 974 ng/mL and the Tmax [13, 23] was 0.033 h. The clearance [13, 23] was 11.1 mL/min/kg, the half-life [13, 23] was 2.99 h and the AUC(0-inf) [13, 24] was 8380 ng·h/mL. It also gave a Cmax [13, 24] of 674 ng/mL, a Tmax [13, 24] of 4 h and a half-life [13, 24] of 5.08 h. The IC50 ([14]; PANC-1, 72 h) was 1.93 µM, the IC50 ([15]; SK-OV-3, 72 h) was 1.78 µM and the IC50 ([16]; HepG2, 72 h) was 1.54 µM. It also gave an IC50 (CDK6 kinase) of 0.018 µM, an IC50 (lung cancer (A-549); A549, 72 h) of 1.64 µM and an IC50 ([17]; PC-3, 72 h) of 1.06 µM.
For `CC(=O)c1c(C)c2cnc(Nc3ccc(N4CCNCC4)cn3)nc2n(C2CCCC2)c1=O` [Palbociclib, reference compound], the “relative tumor proliferation rate T/C(%)” value [1, 18] was 39.6%, the “tumor growth inhibition rate” value [1, 18] was 60.4% and the IC50 ([2]; DU-145, MTT, 72 hours) was 4.57 µM. For the same compound, the IC50 ([4]; K562, MTT, 72 hours) was 2.02 µM, the IC50 ([5]; HT-29, MTT, 72 hours) was 3.84 µM and the “relative tumor proliferation rate T/C(%)” value [6, 21] was 35.5%. For the same compound, the “tumor growth inhibition rate” value [6, 21] was 64.5%, the IC50 ([7]; NCI-H1299, MTT, 72 hours) was 4.2 µM and the IC50 ([8]; RPMI-8226, MTT, 72 hours) was 2.31 µM. The IC50 ([9]; MCF7, MTT, 72 hours) was 4.49 µM, the IC50 ([10]; U-251, MTT, 72 hours) was 4.35 µM and the IC50 ([11]; MGC-803, MTT, 72 hours) was 4.45 µM. It also gave an IC50 ([12]; MDA-MB-231, read-out: IC50 proliferation MDA-MB-231, MTT, 72 hours) of 4.37 µM, an IC50 ([14]; PANC-1, MTT, 72 hours) of 4.16 µM and an IC50 ([15]; SK-OV-3, MTT, 72 hours) of 4.01 µM. It also gave an IC50 ([16]; HepG2, MTT, 72 hours) of 4.14 µM, an IC50 (lung cancer (A-549); A549, MTT, 72 hours) of 4.23 µM and an IC50 ([17]; PC-3, MTT, 72 hours) of 4.57 µM.
